# In patent US20210085686A1, “DELIVERY OF ACTIVE AGENTS USING NANOFIBER WEBS” (CorMedix Inc., priority 2015, published 2021):
# Legend:
# [1] = maximum solubility of taurolidine in HFP (preliminary testing); assay type: physicochemical; conditions: organic solvent or mixture; solvent 1,1,1,3,3,3-hexafluoro-2-propanol (HFP)
# Procedure: All of the polymers and the taurolidine were dissolved in 1,1,1,3,3,3-hexafluoro-2-propanol (HFP; Oakwood Chemical) for processing into small diameter (SD) and large diameter (LD) fibers. […] Thus, for preliminary testing, the taurolidine concentration in the electrospinning solutions was maintained at approximately 100 mg/ml.
# Microbes = conditions: microbes killed and toxins inactivated; cited from earlier work
structure (smiles),measurement,setting,value
"O=S1(=O)CCN(CN2CCS(=O)(=O)NC2)CN1 [taurolidine, bis(1,1-dioxoperhydro-1,2,4-thiadiazinyl-4)-methane]",solubility,[1],~218 mg/mL
same,destruction time in vitro,Microbes,30 min
